This passage reports IC50 results from US5281603A, “Angiotensin II receptor blocking 2,3,6 substituted quinazolinones” (American Cyanamid Company, priority 1993, dated 1994).

The target in the assay is T1, Angiotensin II Receptor (Bos taurus, UniProt P25104).
T1 construct: The brownish tissue forming the adrenal cortex is scraped off and finely minced with scissors before homogenization; from tissue; host or cells: beef adrenal cortex, microsomal membranes (100,000×g pellet)
T1 sequence (P25104 1-359): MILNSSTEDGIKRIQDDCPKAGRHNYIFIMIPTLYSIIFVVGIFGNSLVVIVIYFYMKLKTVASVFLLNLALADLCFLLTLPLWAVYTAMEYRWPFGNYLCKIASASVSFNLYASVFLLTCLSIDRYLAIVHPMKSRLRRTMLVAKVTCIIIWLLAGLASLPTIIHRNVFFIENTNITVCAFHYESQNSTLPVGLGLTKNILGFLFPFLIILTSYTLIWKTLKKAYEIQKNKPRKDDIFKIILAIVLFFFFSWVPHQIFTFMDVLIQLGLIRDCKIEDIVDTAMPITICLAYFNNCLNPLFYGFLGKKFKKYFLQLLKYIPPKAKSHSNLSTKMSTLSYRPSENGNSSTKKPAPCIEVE
In words: Angiotensin II Receptor Binding: displacement of [^125 I](Sar^1,Ile^8)AngII from beef adrenal cortex membranes. Also noted: species or system beef (bovine). To be noted: [^125 I](Sar^1,Ile^8)AngII, beef adrenal membranes, 60 min, room temperature. The source says: Beef adrenals are obtained from a local slaughter house (Maxwell-Cohen). [^125 I](Sar^1,Ile^8)AngII, S.A. 2200 Ci/mmole, is purchased from Dupont (NEN®, Boston, Mass.). All unlabeled AngII analogs, Dimethylsulfoxide (DMSO), nucleotides, bovine serum albumin (BSA) are purchased from Sigma Chemical Co., St. Louis, Mo. U.S.A.
Approximately sixteen (16) to twenty (20) beef adrenal glands are processed as follows: fresh adrenal glands received on crushed ice are cleaned of fatty tissues and the tough membranes encapsulating the glands are removed and discarded. The brownish tissue forming the adrenal cortex is scraped off and finely minced with scissors before homogenization. Care is taken to avoid contamination with medullary tissue during dissection. The scraped cortices are suspended in twenty volumes of an ice-cold buffer medium consisting of 10 mM Tris.HCl (pH 7.4 at 22° C.) and containing 1.0 mM EDTA and 0.2M sucrose. Unless otherwise indicated, all subsequent operations are done at 4° C. […] The homogenate is centrifuged first at low speed (3,000×g) for 10 min. […] This P2 pellet is discarded and the liquid phase is carefully decanted off in clean centrifuge tubes and recentrifuged at high speed (100,000×g) for 60 min. The translucent final pellet is harvested and combined in a small volume (20-50.0 ml) of 50.0 mM Tris.HCl buffer, pH 7.2. […] The pelleted membrane is reconstituted in 50.0 mM Tris.HCl buffer containing 0.1 mM of phenylmethylsulfonyl fluoride (PMSF) to give approximately a protein concentration of 2.5 mg per ml of tissue suspension. The membrane preparation is finally aliquoted in 1.0 ml volumes and stored at -70° C. until use in the binding assays. […]
The wells are left undisturbed for 60 min. at room temperature. […] The filters are removed from the filter grid and counted in a Parkard® Cobra Gamma Counter for 1 min. […] The binding data are analyzed by the non-linear interactive "LUNDON-1" program (LUNDON SOFTWARE Inc., Cleveland, Ohio U.S.A.).

pIC50: −log10 of the molar value.

For the compound `CCCCc1nc2ccc([C@@]3(C)NN[C@@H]4C(=O)N(C)C(=O)[C@@H]43)cc2c(=O)n1Cc1ccc(-c2ccccc2-c2nnn[nH]2)cc1` (relative stereo) [Example 10, (3-alpha,3aalpha,6aalpha)-3-[2-butyl-3,4-dihydro-4-oxo-3-[[2'-(1H-tetrazol-5-yl)-[1,1'-biphenyl]-4-yl]methyl]-6-quinazolinyl]-2,3,3a,6a-tetrahydro-3,5-dimethyl-pyrrolo[3,4-c]pyrazole-4,6(1H,5H)-dione], the pIC50 is 6.06.
To `CCCCc1nc2ccc(C3=NN[C@H]4C(=O)N(C)C(=O)[C@@H]34)cc2c(=O)n1Cc1ccc(-c2ccccc2-c2nnn[nH]2)cc1` (relative stereo) [Example 7] belongs 6.74.
